Measurements: US9938269B2, “Inhibitor compounds of phosphodiesterase type 10A” (ABBVIE INC., priority 2011, dated 2018)
Structures can show the parent of a compound that is named as a salt.

Biological target: T1, PDE10A (human) (Homo sapiens, UniProt Q9Y233)
T1 construct: purchased BPS Bioscience
Test: Measurement of PDE activity (HTRF cAMP kit), human PDE10A
Format: biochemical
Settings: PDE enzymatic reaction, substrate 20 nM for PDE10, 60 minutes at 29 C
Method: The recombinant PDE proteins are used in in vitro enzymatic reaction for measurement of PDE activity. These recombinant proteins, including PDE10A (human, rat and mouse PDE10) and isoforms of PDEs 1, 3, 4, and 5, were purchased from commercial vendor BPS Bioscience. The enzymatic activity of PDEs was determined by cAMP measurement kit from CisBio (IBA) using HTRF technology.
The PDE enzymatic reaction was carried out in assay buffer (20 mM Tris-HCl pH7.5, 10 mM MgCl2, 0.1% bovine serum albumin) containing enzyme and substrate. The PDE enzymes concentration ranged from 10 pM-250 pM, depending on each enzyme's specific activity. The substrate cyclic nucleotide (cAMP or cGMP) concentration used in the assay was 20 nM for PDE10, and 100 nM for other PDEs. The inhibitory effect of compound was determined by incubating various concentration of inhibitor in the enzymatic assay. Typically, compound was serial diluted in DMSO then further diluted in assay buffer. Next, the compound at varying concentration was mixed with PDE enzyme. The reaction was initiated by addition of cyclic nucleotide substrate, and incubated for 60 minutes at 29 C. The reaction was stopped by addition of lysis buffer from assay kit. The cAMP-d2 and anti-cAMP cryptate in the lysis buffer detected the level of cAMP left from the PDE hydrolysis reaction. The PDE activity is reversely correlated with the amount of cAMP left in the reaction and can be converted to the percent activity of an uninhibited control (100%). Thus, IC50 value of inhibitor can be obtained by plotting inhibitor concentration against PDE activity at that concentration.

T1 sequence (Q9Y233 whole entry): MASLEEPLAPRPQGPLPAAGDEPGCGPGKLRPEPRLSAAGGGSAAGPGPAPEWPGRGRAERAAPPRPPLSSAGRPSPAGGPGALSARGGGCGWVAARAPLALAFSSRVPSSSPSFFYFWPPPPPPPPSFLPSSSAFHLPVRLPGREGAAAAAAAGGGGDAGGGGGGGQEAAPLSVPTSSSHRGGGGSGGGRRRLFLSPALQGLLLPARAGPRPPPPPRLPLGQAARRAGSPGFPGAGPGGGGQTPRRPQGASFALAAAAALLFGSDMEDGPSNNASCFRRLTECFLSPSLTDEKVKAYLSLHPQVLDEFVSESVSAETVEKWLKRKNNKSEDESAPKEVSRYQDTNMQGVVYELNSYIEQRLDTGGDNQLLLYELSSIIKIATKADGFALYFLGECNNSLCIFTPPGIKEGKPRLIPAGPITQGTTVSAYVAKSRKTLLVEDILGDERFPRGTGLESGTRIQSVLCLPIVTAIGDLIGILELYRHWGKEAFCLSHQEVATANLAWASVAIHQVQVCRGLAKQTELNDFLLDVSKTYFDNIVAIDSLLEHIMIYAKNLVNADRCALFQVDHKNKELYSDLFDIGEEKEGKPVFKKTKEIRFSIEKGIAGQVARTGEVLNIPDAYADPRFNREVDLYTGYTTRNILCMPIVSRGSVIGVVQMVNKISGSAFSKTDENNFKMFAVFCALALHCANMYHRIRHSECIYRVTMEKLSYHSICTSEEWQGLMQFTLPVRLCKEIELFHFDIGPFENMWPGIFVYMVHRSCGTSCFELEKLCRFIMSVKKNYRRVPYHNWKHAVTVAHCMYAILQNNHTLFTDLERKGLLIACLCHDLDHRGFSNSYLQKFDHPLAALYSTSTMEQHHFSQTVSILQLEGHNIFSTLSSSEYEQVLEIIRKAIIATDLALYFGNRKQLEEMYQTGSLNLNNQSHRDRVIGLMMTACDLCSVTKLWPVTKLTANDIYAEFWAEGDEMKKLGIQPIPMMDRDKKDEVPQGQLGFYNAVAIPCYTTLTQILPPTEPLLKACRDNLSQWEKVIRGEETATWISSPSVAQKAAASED

Structure (SMILES) | IC50 [nM]
CN(C)c1cccc(-c2cccc3c2C(=O)N(CCc2ccc4ccccc4n2)C3)c1 [Example 43, 7-(3-Dimethylamino-phenyl)-2-(2-quinolin-2-yl-ethyl)-2,3-dihydro-isoindol-1-one] | 200 to 500
O=C1c2c(cccc2-c2ccc(F)cc2F)CN1CCc1ccc2ccccc2n1 [Example 45, 7-(2,4-Difluoro-phenyl)-2-(2-quinolin-2-yl-ethyl)-2,3-dihydro-isoindol-1-one] | 100 to 200
O=C1c2c(cccc2-c2ccoc2)CN1CCc1ccc2ccccc2n1 [Example 46, 7-Furan-3-yl-2-(2-quinolin-2-yl-ethyl)-2,3-dihydro-isoindol-1-one] | < 100
O=C1c2c(cccc2-c2cccc(F)c2F)CN1CCc1ccc2ccccc2n1 [Example 50, 7-(2,3-Difluoro-phenyl)-2-(2-quinolin-2-yl-ethyl)-2,3-dihydro-isoindol-1-one] | 200 to 500
O=C1c2c(cccc2-c2cc(F)ccc2F)CN1CCc1ccc2ccccc2n1 [Example 51, 7-(2,5-Difluoro-phenyl)-2-(2-quinolin-2-yl-ethyl)-2,3-dihydro-isoindol-1-one] | 200 to 500
O=C1c2c(cccc2-c2cc[nH]n2)CN1CCc1ccc2ccccc2n1 [Example 53, 7-(1H-Pyrazol-3-yl)-2-(2-quinolin-2-yl-ethyl)-2,3-dihydro-isoindol-1-one] | 100 to 200
O=C1c2c(cccc2-c2ccc3c(c2)CCO3)CN1CCc1ccc2ccccc2n1 [Example 56, 7-(2,3-Dihydro-benzofuran-5-yl)-2-(2-quinolin-2-yl-ethyl)-2,3-dihydro-isoindol-1-one] | 200 to 500
COc1ncc(-c2cccc3c2C(=O)N(CCc2ccc4ccccc4n2)C3)cn1 [Example 61, 7-(2-Methoxy-pyrimidin-5-yl)-2-(2-quinolin-2-yl-ethyl)-2,3-dihydro-isoindol-1-one] | 100 to 200
O=C1c2c(cccc2-c2ccc3cc[nH]c3c2)CN1CCc1ccc2ccccc2n1 [Example 64, 7-(1H-Indol-6-yl)-2-(2-quinolin-2-yl-ethyl)-2,3-dihydro-isoindol-1-one] | < 100
Cc1cc(-c2cccc3c2C(=O)N(CCc2ccc4ccccc4n2)C3)ccn1 [Example 65, 7-(2-Methyl-pyridin-4-yl)-2-(2-quinolin-2-yl-ethyl)-2,3-dihydro-isoindol-1-one] | < 100
Cn1cc(-c2cccc3c2C(=O)N(CCc2ccc4ccccc4n2)C3)cn1 [Example 70, 7-(1-Methyl-1H-pyrazol-4-yl)-2-(2-quinolin-2-yl-ethyl)-2,3-dihydro-isoindol-1-one] | 100 to 200
O=C1c2c(cccc2-c2ccc3occc3c2)CN1CCc1ccc2ccccc2n1 [Example 72, 7-Benzofuran-5-yl-2-(2-quinolin-2-yl-ethyl)-2,3-dihydro-isoindol-1-one] | 200 to 500
Cc1cscc1-c1cccc2c1C(=O)N(CCc1ccc3ccccc3n1)C2 [Example 73, 7-(4-Methyl-thiophen-3-yl)-2-(2-quinolin-2-yl-ethyl)-2,3-dihydro-isoindol-1-one] | 200 to 500
Cn1nccc1-c1cccc2c1C(=O)N(CCc1ccc3ccccc3n1)C2 [Example 74, 7-(2-Methyl-2H-pyrazol-3-yl)-2-(2-quinolin-2-yl-ethyl)-2,3-dihydro-isoindol-1-one] | < 100
O=C1c2c(cccc2-c2ccc3ncccc3c2)CN1CCc1ccc2ccccc2n1 [Example 75, 7-Quinolin-6-yl-2-(2-quinolin-2-yl-ethyl)-2,3-dihydro-isoindol-1-one] | < 100
O=C1c2c(cccc2-c2cncc(F)c2)CN1CCc1ccc2ccccc2n1 [Example 77, 7-(5-Fluoro-pyridin-3-yl)-2-(2-quinolin-2-yl-ethyl)-2,3-dihydro-isoindol-1-one] | < 100

Structure (SMILES) | IC50 [nM]
O=C1c2c(cccc2-c2cn[nH]c2)CN1CCc1ccc2ccccc2n1 [Example 78, 7-(1H-Pyrazol-4-yl)-2-(2-quinolin-2-yl-ethyl)-2,3-dihydro-isoindol-1-one] | < 100
O=C1c2c(cccc2-c2nccs2)CN1CCc1ccc2ccccc2n1 [Example 82, 2-(2-Quinolin-2-yl-ethyl)-7-thiazol-2-yl-2,3-dihydro-isoindol-1-one] | 200 to 500
O=C1c2c(cccc2-c2cnc[nH]2)CN1CCc1ccc2ccccc2n1 [Example 84, 7-(3H-Imidazol-4-yl)-2-(2-quinolin-2-yl-ethyl)-2,3-dihydro-isoindol-1-one] | < 100
O=C1c2c(cccc2-c2ccc(F)cn2)CN1CCc1ccc2ccccc2n1 [Example 88, 7-(5-Fluoro-pyridin-2-yl)-2-(2-quinolin-2-yl-ethyl)-2,3-dihydro-isoindol-1-one] | 200 to 500
O=C1c2c(cccc2-c2ccc3[nH]ncc3c2)CN1CCc1ccc2ccccc2n1 [Example 93, 7-(1H-Indazol-5-yl)-2-(2-quinolin-2-yl-ethyl)-2,3-dihydro-isoindol-1-one] | 200 to 500
Cn1cncc1-c1cccc2c1C(=O)N(CCc1ccc3ccccc3n1)C2 [Example 94, 7-(3-Methyl-3H-imidazol-4-yl)-2-(2-quinolin-2-yl-ethyl)-2,3-dihydro-isoindol-1-one] | 200 to 500
O=C1c2c(cccc2-c2ccc3cn[nH]c3c2)CN1CCc1ccc2ccccc2n1 [Example 97, 7-(1H-Indazol-6-yl)-2-(2-quinolin-2-yl-ethyl)-2,3-dihydro-isoindol-1-one] | < 100
CN1CCC(N2CCN(c3cccc4c3C(=O)N(CCc3ccc5ccccc5n3)C4)CC2)CC1 [Example 105, 7-[4-(1-Methyl-piperidin-4-yl)-piperazin-1-yl]-2-(2-quinolin-2-yl-ethyl)-2,3-dihydro-isoindol-1-one] | 200 to 500
O=C1c2c(cccc2N2CCOCC2)CN1CCc1cc(Cl)c2ccccc2n1 [Example 117, 2-[2-(4-Chloro-quinolin-2-yl)-ethyl]-7-morpholin-4-yl-2,3-dihydro-isoindol-1-one trifluoroacetate] | 100 to 200
O=C1c2c(cccc2NCc2ccncc2)CN1CCc1ccc2ccccc2n1 [Example 125, 7-[(Pyridin-4-ylmethyl)-amino]-2-(2-quinolin-2-yl-ethyl)-2,3-dihydro-isoindol-1-one] | 200 to 500
O=C1c2c(cccc2NCc2cccnc2)CN1CCc1ccc2ccccc2n1 [Example 126, 7-[(Pyridin-3-ylmethyl)-amino]-2-(2-quinolin-2-yl-ethyl)-2,3-dihydro-isoindol-1-one] | 200 to 500
O=C1c2c(cccc2OCc2cccnc2)CN1CCc1ccc2ccccc2n1 [Example 127, 7-(Pyridin-3-ylmethoxy)-2-(2-quinolin-2-yl-ethyl)-2,3-dihydro-isoindol-1-one] | 100 to 200
O=C1c2cccc(N3CCNCC3)c2CN1CCc1ccc2ccccc2n1 [Example 141, 4-piperazin-1-yl-2-(2-quinolin-2-yl-ethyl)-2,3-dihydro-isoindol-1-one] | 200 to 500
O=C1c2c(cccc2N2CCC(F)(F)CC2)CN1CCc1ccc2ccccc2n1 [Example 143, 7-(4,4-Difluoro-piperidin-1-yl)-2-(2-quinolin-2-yl-ethyl)-2,3-dihydro-isoindol-1-one] | < 100
O=C1c2c(cccc2N2CCSCC2)CN1CCc1ccc2ccccc2n1 [Example 150, 2-(2-Quinolin-2-yl-ethyl)-7-thiomorpholin-4-yl-2,3-dihydro-isoindol-1-one] | < 100
